Source: patent US9999616B2 (ZENITH EPIGENETICS LTD., priority 2013, dated 2018)

Experiments:
[1] = test system: c-myc in Human AML MV4-11 cells; assay: Inhibition of cMYC expression (mRNA, real-time PCR) in MV4-11 cells; format: cell-based; details: 3 h treatment, cMYC mRNA by real-time PCR
Description: MV4-11 cells (CRL-9591) were plated at a density of 2.5×10^4 cells per well in 96 well U-bottom plates and treated with increasing concentrations of test compound or DMSO (0.1%) in IMDM media containing 10% FBS and penicillin/streptomycin, and incubated for 3 h at 37′C. Triplicate wells were used for each concentration. Cells were pelleted by centrifugation and harvested using the mRNA Catcher PLUS kit according to manufacturer's instructions. The eluted mRNA isolated was then used in a one-step quantitative real-time PCR reaction, using components of the RNA UltraSense™ One-Step Kit (Life Technologies) together with Applied Biosystems TaqMan® primer-probes for cMYC and Cyclophilin. Real-time PCR plates were run on a ViiA™7 real time PCR machine (Applied Biosystems), data was analyzed, normalizing the Ct values for cMYC to an internal control, prior to determining the fold expression of each sample, relative to the control.

Human AML MV-4-11 cells = assay: Inhibition of cell proliferation in MV4-11 cells (CellTiter Aqueous One); format: cell-based; details: for IC50: MV4-11, 72 h
Description: MV4-11 cells (CRL-9591) were plated at a density of 5×10^4 cells per well in 96 well flat bottom plates and treated with increasing concentrations of test compound or DMSO (0.1%) in IMDM media containing 10% FBS and penicillin/streptomycin. Triplicate wells were used for each concentration and a well containing only media was used as a control. Plates were incubated at 37° C., 5% CO2 for 72 h before adding 20 µL of the CellTiter Aqueous One Solution (Promega) to each well and incubated at 37° C., 5% CO2 for an additional 3-4 h. The absorbance was read at 490 nm in a spectrophotometer and the percentage of cell titer relative to DMSO-treated cells was calculated after correcting for background by subtracting the blank well's signal. IC50 values were calculated using the GraphPad Prism software.

hIL-6 mRNA = assay: Inhibition of hIL-6 mRNA transcription in LPS-stimulated U937 macrophages; format: cell-based, Human; details: Homo sapiens, U-937, PMA-differentiated U937 cells, 1 h pretreatment, LPS 3 h, read-out: IL-6 activity
Description: Human leukemic monocyte lymphoma U937 cells (CRL-1593.2) were plated at a density of 3.2×10^4 cells per well in a 96-well plate in 100 μL RPMI-1640 containing 10% FBS and penicillin/streptomycin, and differentiated into macrophages for 3 days in 60 ng/mL PMA ([…]) at 37° C. in 5% CO2 prior to the addition of compound. The cells were pretreated for 1 h with increasing concentrations of test compound in 0.1% DMSO prior to stimulation with 1 ug/mL lipopolysaccharide from Escherichia coli. Triplicate wells were used for each concentration. The cells were incubated at 37° C., 5% CO2 for 3 h before the cells were harvested. At time of harvest, media was removed and cells were rinsed in 200 μL PBS. Cells were harvested using the mRNA Catcher PLUS kit according to manufacturer's instructions. The eluted mRNA was then used in a one-step quantitative real-time PCR reaction using components of the RNA UltraSense™ One-Step Kit (Life Technologies) together with Applied Biosystems TaqMan® primer-probes for hIL-6 and Cyclophilin. Real-time PCR plates were run on a ViiA™7 real time PCR machine (Applied Biosystems), data was analyzed, normalizing the Ct values for hlL-6 to an internal control, prior to determining the fold expression of each sample, relative to the control.

[2] = target: Brd4 bromodomain 1 (BRD4(1)) (Homo sapiens, UniProt O60885); assay: Inhibition of tetra-acetylated histone H4 binding to Brd4 bromodomain 1, measured by FRET (HTRF); design: made in house; host or cells: E. coli BL21(DE3); details: 2 h at room temperature
How it was run: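 Inhibition was read as a drop in 665 nm relative to 620 nm HTRF signal after 2 h at room temperature, with IC50 from dose-response curves in duplicate wells. Reactions held 200 nM E. coli-expressed His-tagged bromodomain and 25-50 nM biotinylated tetra-acetylated histone H4 peptide. Buffer was 30 mM HEPES pH 7.4 with KF, CHAPS, BSA and 0.2% DMSO.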

SMILES | IC50 [1] | IC50 (Human AML MV-4-11 cells) | IC50 (hIL-6 mRNA) | IC50 [2] | Cell Proliferation activity (Human AML MV-4-11 cells; 72 h)
Cc1noc(C)c1-c1cc(NCc2ccc(F)cc2)c2nc[nH]c2c1 [Example Compound 38, 6-(3,5-dimethyl-isoxazol-4-yl)-N-(4-fluorobenzyl)-1H-benzo[d] imidazol-4-amine] | 300 to 3000 nM | 300 to 3000 nM | 300 to 3000 nM | ≤ 300 nM | 
Cc1noc(C)c1-c1cc(-c2c(C)noc2C)c2nc(NC3CCOCC3)[nH]c2c1 [Example Compound 229, 4,6-bis(3,5-dimethyl-isoxazol-4-yl)-N-(tetrahydro-2H-pyran-4-yl)-1H-benzo[d] imidazol-2-amine] | ≤ 300 nM | 300 to 3000 nM | ≤ 300 nM | ≤ 300 nM | 
Cc1noc(C)c1-c1cc(-c2cccnc2C(F)(F)F)c2[nH]ncc2c1 [Example Compound 128, 3,5-dimethyl-4-(7-(2-(trifluoromethyl)pyridin-3-yl)-1H-indazol-5-yl)isoxazole] | 300 to 3000 nM | 300 to 3000 nM | ≤ 300 nM | 300 to 3000 nM | 
Cc1nc2c(-c3ccccc3Cl)cc(-c3c(C)noc3C)cc2[nH]1 [Example Compound 144, 4-(4-(2-chloro-phenyl)-2-methyl-1H-benzo[d]imidazol-6-yl)-3,5-dimethyl isoxazole] | ≤ 300 nM | ≤ 300 nM | ≤ 300 nM | ≤ 300 nM | 
Cc1ccc(C#N)cc1-c1cc(-c2c(C)noc2C)cc2[nH]c(NCc3ccccc3)nc12 [Example Compound 210, 3-(2-(benzylamino)-6-(3,5-dimethyl-isoxazol-4-yl)-1H-benzo[d]imidazol-4-yl)-4-methyl benzonitrile] | 300 to 3000 nM | ≤ 300 nM | 300 to 3000 nM | ≤ 300 nM | 
Cc1ccncc1-c1cc(-c2c(C)noc2C)cc2[nH]c(NC3CCOCC3)nc12 [Example Compound 201, 6-(3,5-dimethyl-isoxazol-4-yl)-4-(4-methyl-pyridin-3-yl)-N-(tetra hydro-2H-pyran-4-yl)-1H-benzo[d] imidazol-2-amine] | ≤ 300 nM | ≤ 300 nM | ≤ 300 nM | ≤ 300 nM | 
COc1ccc(F)c(-c2cc(-c3c(C)noc3C)cc3[nH]c(C)nc23)c1 [Example Compound 108, 4-(4-(2-fluoro-5-methoxy-phenyl)-2-methyl-1H-benzo[d]imidazol-6-yl)-3,5-dimethyl isoxazole] | 300 to 3000 nM | 300 to 3000 nM | 300 to 3000 nM | ≤ 300 nM | 
Cc1noc(C)c1-c1cc(-c2ccnn2C)cc2[nH]cnc12 [Example Compound 230, 3,5-dimethyl-4-(6-(1-methyl-1H-pyrazol-5-yl)-1H-benzo[d]imidazol-4-yl)isoxazole] | 300 to 3000 nM |  | 3000 to 30000 nM | 300 to 3000 nM | Not active
Cc1noc(C)c1-c1cc(-c2cccc(C#N)c2)c2nc[nH]c2c1 [Example Compound 2, 3-(6-(3,5-dimethylisoxazol-4-yl)-1H-benzo[d]imidazol-4-yl) benzonitrile] | 300 to 3000 nM | 300 to 3000 nM | 300 to 3000 nM | ≤ 300 nM | 
Cc1nc2c(-c3sc(C)nc3C)cc(-c3c(C)noc3C)cc2[nH]1 [Example Compound 170, 4-(4-(2,4-dimethyl-thiazol-5-yl)-2-methyl-1H-benzo[d]imidazol-6-yl)-3,5-dimethyl isoxazole] | 300 to 3000 nM | 300 to 3000 nM | 300 to 3000 nM | ≤ 300 nM | 
Cc1nc2c(-c3scnc3C)cc(-c3c(C)noc3C)cc2[nH]1 [Example Compound 104, 3,5-dimethyl-4-(2-methyl-4-(4-methyl-thiazol-5-yl)-1H-benzo[d]imidazol-6-yl)isoxazole] | 300 to 3000 nM | 300 to 3000 nM | ≤ 300 nM | ≤ 300 nM | 
Cc1nc2c(N3CCOCC3)cc(-c3c(C)noc3C)cc2[nH]1 [Example Compound 173, 4-(6-(3,5-dimethyl-isoxazol-4-yl)-2-methyl-1H-benzo[d]imidazol-4-yl) morpholine] | 300 to 3000 nM | 300 to 3000 nM | 300 to 3000 nM | ≤ 300 nM | 
Cc1nc2c(-c3ccccc3)cc(-c3c(C)noc3C)cc2[nH]1 [Example Compound 88, 3,5-dimethyl-4-(2-methyl-4-phenyl-1H-benzo[d]imidazol 6-yl)isoxazole] | 300 to 3000 nM | 300 to 3000 nM | 300 to 3000 nM | ≤ 300 nM | 
COc1ccc(Cl)cc1-c1cc(-c2c(C)noc2C)cc2[nH]c(C)nc12 [Example Compound 107, 4-(4-(5-chloro-2-methoxy-phenyl)-2-methyl-1H-benzo[d]imidazol-6-yl)-3,5-dimethyl isoxazole] | 300 to 3000 nM | 300 to 3000 nM | 300 to 3000 nM | ≤ 300 nM | 
Cc1nc2c(-c3cc4ccccc4s3)cc(-c3c(C)noc3C)cc2[nH]1 [Example Compound 145, 4-(4-(benzo[b]thiophen-2-yl)-2-methyl-1H-benzo[d]imidazol-6-yl)-3,5-dimethyl isoxazole] | 300 to 3000 nM | ≤ 300 nM | 300 to 3000 nM | 300 to 3000 nM | 
Cc1noc(C)c1-c1cc(N(CCc2ccccc2)CCc2ccccc2)c2nc[nH]c2c1 [Example Compound 151, 6-(3,5-dimethyl-isoxazol-4-yl)-N,N-diphenethyl-1H-benzo[d] imidazol-4-amine] | 300 to 3000 nM | 300 to 3000 nM | 300 to 3000 nM | 300 to 3000 nM | 
Cc1nc2c(-c3cnc4ccccc4c3)cc(-c3c(C)noc3C)cc2[nH]1 [Example Compound 163, 3,5-dimethyl-4-(2-methyl-4-(quinolin-3-yl)-1H-benzo[d]imidazol-6-yl)isoxazole] | 300 to 3000 nM | 300 to 3000 nM | 300 to 3000 nM | ≤ 300 nM | 
Cc1nc2c(-c3ccccc3C)cc(-c3c(C)noc3C)cc2[nH]1 [Example Compound 89, 3,5-dimethyl-4-(2-methyl-4-(o-tolyl)-1H-benzo[d]imidazol-6-yl)isoxazole] | ≤ 300 nM | 300 to 3000 nM | 300 to 3000 nM | ≤ 300 nM | 
COc1ccncc1-c1cc(-c2c(C)noc2C)cc2[nH]c(C)nc12 [Example Compound 72, 4-(4-(4-methoxy-pyridin-3-yl)-2-methyl-1H-benzo[d]imidazol-6-yl)-3,5-dimethyl isoxazole] | 300 to 3000 nM | 300 to 3000 nM | 300 to 3000 nM | ≤ 300 nM | 
Cc1nc2c(Oc3cc(C(N)=O)ccc3C)cc(-c3c(C)noc3C)cc2[nH]1 [Example Compound 174, 3-((6-(3,5-dimethylisoxazol-4-yl)-2-methyl-1H-benzo[d]imidazol-4-yl)oxy)-4-methylbenzamide] | 300 to 3000 nM | 300 to 3000 nM | 300 to 3000 nM | ≤ 300 nM | 
Cc1nc2c(-c3c(C)ncnc3C)cc(-c3c(C)noc3C)cc2[nH]1 [Example Compound 98, 4-(4-(4,6-dimethyl-pyrimidin-5-yl)-2-methyl-1H-benzo[d]imidazol-6-yl)-3,5-dimethyl isoxazole] | 300 to 3000 nM | 300 to 3000 nM | 300 to 3000 nM | ≤ 300 nM | 
Cc1noc(C)c1-c1cc(-c2cnccc2C(F)(F)F)c2[nH]ncc2c1 [Example Compound 129, 3,5-dimethyl-4-(7-(4-(trifluoromethyl)pyridin-3-yl)-1H-indazol-5-yl)isoxazole] | 300 to 3000 nM | 300 to 3000 nM | 300 to 3000 nM | 300 to 3000 nM | 
